How the values were obtained:
[1] = test system: subjects with insomnia disorder (ID); assay: Nighttime administration in subjects with insomnia disorder (statement); assay type: in vivo, human
[2] = test system: subjects diagnosed with MDD; assay: HDRS17 / HAM-D6 ratings, Group 1 monotherapy (Example 3); assay type: in vivo, human
Description: Specifically, Compound A was administered to subjects diagnosed with MDD (i) as a monotherapy and (ii) in combination with a known anti-depressant and the symptoms of depression of the subjects evaluated using the HDRS17 and HAM-D6 scale
Each subject in Group 2 also took an amount of antidepressant selected from duloxetine, citalopram, paroxetine, or sertraline and as prescribed by their attending physician. For the evaluation of symptoms of depression for both groups, assessments were independently performed at screening and on Day 11, i.e., one day after the study, using HDRS17 and HAM-D6 as described in Example 2. In Tables 11-12, # denotes the Cohen effect size, * denotes P<0.05 (statistically significant), and ** denotes P<0.01.

[3] = Plasma pharmacokinetics after single 20 mg oral dose of suspension or tablet formulation (Example 1); assay type: in vivo, Human
Description: This example was performed to determine the plasma pharmacokinetic (PK) and bioavailability of a solid dose formulation of [5(4,6-dimethyl-pyrimidin-2-yl)-hexahydro-pyrrolo[3,4-c]pyrrol-2-yl]-(2-fluoro-2-[1,2,3]triazol-2-yl-phenyl)-methanone (Compound A) after single dose tablet administration relative to a suspension formulation. Also addressed are the effect of a semi-fasted condition on the rate and extent of bioavailability of the solid dose formulation and tolerability of the solid and oral suspension formulations.
During each treatment period, blood samples were collected for PK measurements. Specifically, venous blood samples of 3 mL each were collected for determination of Compound plasma concentrations. The following plasma Compound A PK parameters were estimated using the actual times of blood sampling: • Cmax peak plasma concentration. • tmax time to reach the peak plasma concentration. • AUClast area under the plasma concentration-time curve from 0 to t hours post study drug dosing, calculated by trapezoidal summation (time t is the time of the last quantifiable concentration Clast). • AUC∞ AUClast extrapolated to infinity, calculated as AUClast+Clast/λz. • λz elimination rate constant, determined by linear regression of the terminal points of the ln-linear plasma concentration-time curve. • t1/2 terminal half-life, defined as 0.693/λz. • CL/F total clearance of drug after extravascular administration, uncorrected for absolute bioavailability, calculated as Dose/AUC∞. • Vd/F apparent volume of distribution after extravascular administration, uncorrected for absolute bioavailability.
Samples were prepared for testing using the following protocol: • (i) Plasma samples at room temperature were homogenized. • (ii) The samples were centrifuged for 5 minutes at about 2500×g and 20° C. • (iii) The plasma sample (50.0 μL) was pipetted into a 1.2 mL round well collection plate. • (iv) Stock Dilution Solvent (50.0 μL) was added to the blanks and the internal standard working solution was added to all other tube. […]

[4] = biological target: T1, orexin-2 receptor (Homo sapiens, UniProt O43614); assay: Orexin-2 receptor antagonism (statement); details: orally active
T1 sequence (O43614 1-444): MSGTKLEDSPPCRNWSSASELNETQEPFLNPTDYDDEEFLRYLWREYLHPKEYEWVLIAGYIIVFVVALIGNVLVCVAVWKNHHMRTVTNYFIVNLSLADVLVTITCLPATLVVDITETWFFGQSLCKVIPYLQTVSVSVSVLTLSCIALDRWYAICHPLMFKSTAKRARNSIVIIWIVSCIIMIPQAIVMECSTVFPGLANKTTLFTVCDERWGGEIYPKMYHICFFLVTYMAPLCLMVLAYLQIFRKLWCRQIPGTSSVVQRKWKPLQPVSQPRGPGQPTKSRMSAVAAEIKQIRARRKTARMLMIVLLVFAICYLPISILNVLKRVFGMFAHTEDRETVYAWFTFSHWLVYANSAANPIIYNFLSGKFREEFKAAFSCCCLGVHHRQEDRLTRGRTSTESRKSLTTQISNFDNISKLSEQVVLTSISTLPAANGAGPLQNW

Substance: [5(4,6-dimethyl-pyrimidin-2-yl)-hexahydro-pyrrolo[3,4-c]pyrrol-2-yl]-(2-fluoro-2-[1,2,3]triazol-2-yl-phenyl)-methanone [Compound A]
- latency to persistent sleep (LPS) [1]: reduced
- total sleep time (TST) [1]: prolongs
- Adjusted HDRS Effect Size Compound A vs Placebo (Cohen effect size) ([2]; Group 1, Day 11): −0.93
- Adjusted HDRS mean score (SD), change from baseline ([2]; Group 1, Day 11): −4.3 (2.97)*
- Anxiety-Somatization Factor Effect Size Compound A vs Placebo (Cohen effect size) ([2]; Group 1, Day 11): −0.51
- Anxiety-Somatization Factor mean score (SD), change from baseline ([2]; Group 1, Day 11): −1.6 (1.65)
- HAM-D6 Effect Size Compound A vs Placebo (Cohen effect size) ([2]; Group 1, Day 11): −1.22
- HAM-D6 mean score (SD), change from baseline ([2]; Group 1, Day 11): −3.6 (2.33)**
- HDRS17 Effect Size Compound A vs Placebo (Cohen effect size) ([2]; Group 1, Day 11): −0.64
- HDRS17 mean score (SD), change from baseline ([2]; Group 1, Day 11): −5.1 (3.97)
- antidepressant efficacy as monotherapy ([2]; untreated subjects with MDD): has antidepressant efficacy
- mean t1/2 ([3]; 20 mg oral suspension, fasted): ~2 h
- mean t1/2 ([3]; 20 mg tablet, fasting condition): ~5 h
- mean t1/2 ([3]; 20 mg tablet, semi-fasted): ~2 h
- activity at orexin-2 receptor [4]: selective antagonist

From US12201634B2, “Methods of treating depression using orexin-2 receptor antagonists” (Janssen Pharmaceutica NV, priority 2016, dated 2025)
